Source: PubChem BioAssay (NCI)
Several values for one entry are separate records, joined by “and”; a condition that tells them apart may be missing. Equal values may be shown once.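 These data come from cells grown in 96-well plates and exposed to compound for 48 hours at five concentrations. GI50 marks 50% less growth. TGI: total growth inhibition.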 Where a SMILES comes first, the peptide text is derived from it. [ ]: non-standard residue; d: D form. The star is where a group is joined. ξ: configuration not given here. ξPhe(4-NO2) = NC(Cc1ccc([N+](=O)[O-])cc1)C(=O)O; Boc = CC(C)(C)OC(=O)*; OBn = c1ccc(CO*)cc1

What was measured:
Assay in all cases: NCI tumour cell line growth inhibition, 48 h
MDA-MB-435 = system: MDA-MB-435
NCI-H226 lung = system: NCI-H226 lung
OVCAR-5 ovarian = system: OVCAR-5 ovarian
OVCAR-8 ovarian = system: OVCAR-8 ovarian
RXF 393 renal = system: RXF 393 renal
UO-31 renal = system: UO-31 renal

Row | SMILES | TGI (MDA-MB-435) | TGI (NCI-H226 lung) | TGI (OVCAR-5 ovarian) | TGI (OVCAR-8 ovarian) | TGI (RXF 393 renal) | TGI (UO-31 renal) | GI50 (NCI-H226 lung) | GI50 (OVCAR-5 ovarian) [µM] | GI50 (RXF 393 renal) [µM] | GI50 (UO-31 renal)
1 | COc1cc(C)cc2c1C(=O)C(Br)=CC2=O | 5.68 µM | 32.3 µM | 36.6 µM | 15.2 µM | 8.36 µM | 11.3 µM |  |  |  | 
2 | C=CCNC(=O)/C(Cc1cc(Br)c(OC)c(Br)c1O)=N\O | 2.69 µM | 23.4 µM | 34.4 µM | 20.9 µM |  | 15.6 µM |  |  |  | 
3 | COc1ccc(C2CC(=O)Oc3ccccc3O2)cc1 (stereo unspecified) | > 100 µM | > 100 µM |  | > 100 µM | > 100 µM | > 100 µM |  |  |  | 
4 | COC(C/C(=C/CO[Si](C(C)C)(C(C)C)C(C)C)C(=O)Nc1ccccc1I)OC | > 100 µM | 98.5 µM | 70 µM | > 100 µM | 27.1 µM | > 100 µM |  |  |  | 
5 | CC(C)(C)OC(=O)NC(Cc1ccc([N+](=O)[O-])cc1)C(=O)NCC(=O)OCc1ccccc1 (stereo unspecified) (Boc-[ξPhe(4-NO2)]-Gly-OBn) | 33.2 µM | 67.8 µM | > 100 µM | 52.4 µM | 53.1 µM | 45.4 µM |  |  |  | 
6 | Cn1cc2c(=O)n3ncn(-c4ccc(Br)cc4)c3nc2n1 | > 100 µM | > 100 µM | > 100 µM | > 100 µM | > 100 µM | > 100 µM |  |  |  | 
7 | Nc1nc(N)nc(-c2cnccn2)n1 | > 100 µM | > 100 µM | > 100 µM | > 100 µM | > 100 µM | > 100 µM |  |  |  | 
8 | COc1ccc2c(c1)N(C(C)=O)CN1C(=O)CCC21 (stereo unspecified) | > 100 µM | > 100 µM | > 100 µM | > 100 µM | > 100 µM | > 100 µM |  |  |  | 
9 | CN(C)c1ncnc2c1ncn2C1C=CC(COS(N)(=O)=O)C1 (stereo unspecified) | > 100 µM |  |  | > 100 µM | > 100 µM | > 100 µM |  |  |  | 
10 | COC(=O)/C(C#N)=C1\NC(=O)CC(c2ccccc2)C1C#N (stereo unspecified) |  | > 100 µM | > 100 µM | > 100 µM | > 100 µM | > 100 µM |  |  |  | 
11 | CN(C)CCOC1(Cc2ccc(Cl)cc2Cl)CCC(C(C)(C)C)CC1 (stereo unspecified) | 2.89 µM and 3.18 µM | 5.13 µM and 10.7 µM | 5.54 µM and 3.55 µM | 3.59 µM and 3.74 µM | 3.11 µM and 3.28 µM | 6.27 µM and 2.83 µM | 2.19 µM and 4.67 µM | 2.09 | 1.68 | 2.17 µM and 1.45 µM
12 | Cc1[nH]n(-c2nc3c(c(=O)[nH]2)CCC3)c(=O)c1CCO | > 100 µM | > 100 µM | > 100 µM | > 100 µM | > 100 µM | > 100 µM |  |  |  | 
13 | O=c1cc(NCC2CCCCC2)[nH]c(=O)[nH]1 | > 100 µM | > 100 µM | > 100 µM | > 100 µM | > 100 µM | > 100 µM |  |  |  | 
14 | CCOC(=O)C1=C(C)N(C)C(=S)NC1c1cccc(O)c1 (stereo unspecified) | 34.9 µM | > 100 µM | > 100 µM | > 100 µM | 52.4 µM | > 100 µM |  |  |  | 
15 | Cn1cnc2c(OCC3CCCCC3)nc(N)nc21 | > 100 µM | > 100 µM | > 100 µM | > 100 µM | > 100 µM | > 100 µM |  |  |  | 
16 | NC(=O)C(=CN1C(=O)CC(=O)NC1=S)C(N)=O | > 100 µM | > 100 µM | > 100 µM | > 100 µM | > 100 µM | > 100 µM |  |  |  | 
17 | O=C1SC(c2ccc(Cl)cc2)(c2ccc(Cl)cc2)c2ccccc21 | > 100 µM | > 100 µM | > 100 µM | > 100 µM | > 100 µM | > 100 µM |  |  |  | 
18 | CCCCCC(=O)OCC(=O)[C@H]1[C@H](C)C[C@H]2[C@@H]3C[C@H](F)C4=C/C(=N/OC(=O)c5cccc6c(=O)c7ccccc7[nH]c56)C=C[C@]4(C)[C@H]3[C@@H](O)C[C@@]21C | 55.3 µM | > 100 µM | > 100 µM | 65.9 µM |  | 50 µM |  |  |  | 
19 | O=[N+]([O-])/C(Cl)=C(\Nc1ccccc1)C(Cl)=C(Cl)Cl | 35.1 µM | 78 µM | > 100 µM | 53.9 µM | > 100 µM | > 100 µM |  |  |  | 
20 | C[C@H]1C(OCCOC2O[C@@H]3O[C@@]4(C)CC[C@H]5[C@H](C)CCC([C@H]2C)[C@@]35O4)O[C@@H]2O[C@@]3(C)CC[C@H]4[C@H](C)CCC1[C@@]24O3 (stereo partly specified) | > 100 µM | > 100 µM | > 100 µM | > 100 µM |  |  |  |  |  | 
21 | CC(=N/NC(=S)Nc1c(C)n(C)n(-c2ccccc2)c1=O)/C(C)=N\NC(=S)Nc1c(C)n(C)n(-c2ccccc2)c1=O | > 100 µM | > 100 µM | > 100 µM | > 100 µM | > 100 µM | > 100 µM |  |  |  | 
22 | COc1ccc(C2SC(N)=Nc3c2c(C)nn3C(=O)c2ccc(Cl)cc2)cc1 (stereo unspecified) | > 10 µM | > 10 µM | > 10 µM | > 10 µM | > 10 µM |  |  |  |  | 
23 | COc1ccc(Nc2nc(N)c(C(=O)c3ccc(OC)cc3)s2)cc1 | 0.208 µM | 75.8 µM | > 100 µM | > 74.5 µM | 4.55 µM | 44.3 µM |  |  |  | 
24 | COc1cc(/C=C2/SC(c3ccccc3)N(c3ccc(Cl)cc3)C2=O)cc(OC)c1OC (stereo unspecified) | 24.2 µM | > 100 µM | > 100 µM | > 100 µM | > 100 µM | > 100 µM |  |  |  | 
25 | COc1ccc(-c2c3c(n(C4OC(CO)C(O)C(O)C4O)c(=S)c2C#N)CC(C)(C)CC3=O)cc1 (stereo unspecified) | > 100 µM | > 100 µM | > 100 µM | > 100 µM | > 100 µM | > 100 µM |  |  |  | 
26 | CCCC(=O)N/S(=N/S(=O)(=O)c1ccc(Cl)cc1)C(Cl)(Cl)Cl (stereo unspecified) | > 100 µM | > 100 µM | > 100 µM | > 100 µM | > 100 µM | > 100 µM |  |  |  | 
27 | OCCSCc1cc2c(O)c(c1)Cc1cc(CSCCO)cc(c1O)Cc1cc(CSCCO)cc(c1O)Cc1cc(CSCCO)cc(c1O)C2 | 9.04 µM | 37.5 µM | 18.9 µM | 17.6 µM | 18.3 µM | 28.3 µM |  |  |  | 
28 | CN1CC2=C(NC(=S)NC2c2ccc(Cl)cc2)/C(=C/c2ccc(Cl)cc2)C1 (stereo unspecified) | 30.1 µM |  | 31.4 µM | 37.8 µM |  | > 100 µM |  |  |  | 
29 | Cc1cc(NC(=O)C(=O)Cc2cnc3ccccc3n2)c(S(=O)(=O)O)cc1Cl | > 100 µM | > 100 µM | > 100 µM | > 100 µM |  | > 100 µM |  |  |  | 
30 | Cc1cn(CC2=NCC(C)(C)CN2)c(=O)[nH]c1=O |  | > 100 µM | > 100 µM | > 100 µM | > 100 µM | > 100 µM |  |  |  | 
